Values quoted from earlier work as cited in PubChem BioAssay AID1259409 (Chemical Carcinogenesis Research Information System (CCRIS), 2018).

Tested on: rodent chemically induced tumor inhibition, incidence and multiplicity
Assay: CCRIS tumor inhibitor studies
Settings: Route [Inhibitor]: ORAL, Promoter: NONE USED

## Cc1c(-c2cnccn2)ssc1=S
Carcinogen: AZOXYMETHANE, 25843-45-2, Dose [Inhibitor]: 0, 200 PPM IN DIET FOR 56 WK BEGINNING 2 WK PRIOR TO CARCINOGEN TREATMENT (STUDY DURATION: 56 WK), Species: RAT, Strain/Sex: F344/MALE, Target Tissue: Type of Lesion: SMALL INTESTINE (DISTAL): TUMOR, Dose [Carcinogen]: 15 MG/KG 1/WK FOR 2 WK
  tumour outcome (control, treated, inhibition, significance): 12%, 5%, 58%, not significant
Carcinogen: AZOXYMETHANE, 25843-45-2, Dose [Inhibitor]: 0, 200 PPM IN DIET FOR 56 WK BEGINNING 2 WK PRIOR TO CARCINOGEN TREATMENT (STUDY DURATION: 56 WK), Species: RAT, Strain/Sex: F344/MALE, Target Tissue: Type of Lesion: SMALL INTESTINE (PROXIMAL): TUMOR, Dose [Carcinogen]: 15 MG/KG 1/WK FOR 2 WK
  tumour outcome (control, treated, inhibition, significance): 33%, 14%, 58%, not significant
Carcinogen: AZOXYMETHANE, 25843-45-2, Dose [Inhibitor]: 0, 400 PPM IN DIET 7 WK PRIOR TO CARCINOGEN TREATMENT AND CONTINUING FOR STUDY DURATION (STUDY DURATION: 59 WK), Species: RAT, Strain/Sex: F344/MALE, Target Tissue: Type of Lesion: COLON: ADENOCARCINOMA, Dose [Carcinogen]: 15 MG/KG 1/WK FOR 2 WK
  tumour outcome (control, treated, inhibition, significance): 72%, 50%, 31%, p<0.05
Carcinogen: AZOXYMETHANE, 25843-45-2, Dose [Inhibitor]: 0, 400 PPM IN DIET 7 WK PRIOR TO CARCINOGEN TREATMENT AND CONTINUING FOR STUDY DURATION (STUDY DURATION: 59 WK), Species: RAT, Strain/Sex: F344/MALE, Target Tissue: Type of Lesion: COLON: ADENOMA, Dose [Carcinogen]: 15 MG/KG 1/WK FOR 2 WK
  tumour outcome (control, treated, inhibition, significance): 14%, 8%, 43%, not calculated
Carcinogen: AZOXYMETHANE, 25843-45-2, Dose [Inhibitor]: 0, 400 PPM IN DIET 7 WK PRIOR TO CARCINOGEN TREATMENT AND CONTINUING FOR STUDY DURATION (STUDY DURATION: 59 WK), Species: RAT, Strain/Sex: F344/MALE, Target Tissue: Type of Lesion: SMALL INTESTINE: ADENOCARCINOMA, Dose [Carcinogen]: 15 MG/KG 1/WK FOR 2 WK
  tumour outcome (control, treated, inhibition, significance): 50%, 8%, 84%, p<0.001
Carcinogen: AZOXYMETHANE, 25843-45-2, Dose [Inhibitor]: 0, 400 PPM IN DIET 7 WK PRIOR TO CARCINOGEN TREATMENT AND CONTINUING FOR STUDY DURATION (STUDY DURATION: 59 WK), Species: RAT, Strain/Sex: F344/MALE, Target Tissue: Type of Lesion: SMALL INTESTINE: ADENOMA, Dose [Carcinogen]: 15 MG/KG 1/WK FOR 2 WK
  tumour outcome (control, treated, inhibition, significance): 3%, 0%, 100%, not calculated
Carcinogen: AZOXYMETHANE, 25843-45-2, Dose [Inhibitor]: 0, 400 PPM IN DIET FOR 56 WK BEGINNING 2 WK PRIOR TO CARCINOGEN TREATMENT (STUDY DURATION: 56 WK), Species: RAT, Strain/Sex: F344/MALE, Target Tissue: Type of Lesion: COLON (DISTAL): TUMOR, Dose [Carcinogen]: 15 MG/KG 1/WK FOR 2 WK
  tumour outcome (control, treated, inhibition, significance): 47%, 36%, 23%, not significant
Carcinogen: AZOXYMETHANE, 25843-45-2, Dose [Inhibitor]: 0, 400 PPM IN DIET FOR 56 WK BEGINNING 2 WK PRIOR TO CARCINOGEN TREATMENT (STUDY DURATION: 56 WK), Species: RAT, Strain/Sex: F344/MALE, Target Tissue: Type of Lesion: COLON (PROXIMAL): TUMOR, Dose [Carcinogen]: 15 MG/KG 1/WK FOR 2 WK
  tumour outcome (control, treated, inhibition, significance): 39%, 36%, 8%, not significant
Carcinogen: AZOXYMETHANE, 25843-45-2, Dose [Inhibitor]: 0, 400 PPM IN DIET FOR 56 WK BEGINNING 2 WK PRIOR TO CARCINOGEN TREATMENT (STUDY DURATION: 56 WK), Species: RAT, Strain/Sex: F344/MALE, Target Tissue: Type of Lesion: SMALL INTESTINE (PROXIMAL): TUMOR, Dose [Carcinogen]: 15 MG/KG 1/WK FOR 2 WK
  tumour outcome (control, treated, inhibition, significance): 33%, 5%, 85%, p<0.05
Carcinogen: AZOXYMETHANE, 25843-45-2, Dose [Inhibitor]: 0, 400 PPM IN DIET FOR 56 WK BEGINNING 2 WK PRIOR TO CARCINOGEN TREATMENT (STUDY DURATION: 56 WK), Species: RAT, Strain/Sex: F344/MALE, Target Tissue: Type of Lesion: SMALL INTESTINE(DISTAL): TUMOR, Dose [Carcinogen]: 15 MG/KG 1/WK FOR 2 WK
  tumour outcome (control, treated, inhibition, significance): 12%, 5%, 58%, not significant
Carcinogen: AZOXYMETHANE, 25843-45-2, Dose [Inhibitor]: O, 200 PPM IN DIET 7 WK PRIOR TO CARCINOGEN TREATMENT AND CONTINUING FOR STUDY DURATION (STUDY DURATION: 59 WK), Species: RAT, Strain/Sex: F344/MALE, Target Tissue: Type of Lesion: SMALL INTESTINE, ADENOMA, Dose [Carcinogen]: 15 MG/KG 1/WK FOR 2 WK
  tumour outcome (control, treated, inhibition, significance): 3%, 0%, 100%, not calculated
Carcinogen: BENZO[A]PYRENE, 50-32-8, Dose [Inhibitor]: 0, 180 PPM IN DIET FOR 36 WK BEGINNING 48 HR PRIOR TO CARCINOGEN DOSE (STUDY DURATION: 36 WK), Species: MOUSE, Strain/Sex: STRAIN-A/FEMALE, Target Tissue: Type of Lesion: LUNG: TUMOR, Dose [Carcinogen]: 100 MG/KG IN 0.1 ML OF TRICAPRYLIN ONCE
  tumour outcome (control, treated, inhibition, significance): 100%, 100%, 0%, not significant
Carcinogen: BENZO[A]PYRENE, 50-32-8, Dose [Inhibitor]: 0, 360 PPM IN DIET FOR 36 WK BEGINNING 48 HR PRIOR TO CARCINOGEN DOSE (STUDY DURATION: 36 WK), Species: MOUSE, Strain/Sex: STRAIN-A/FEMALE, Target Tissue: Type of Lesion: LUNG: TUMOR, Dose [Carcinogen]: 100 MG/KG IN 0.1 ML OF TRICAPRYLIN ONCE
  tumour outcome (control, treated, inhibition, significance): 100%, 100%, 0%, not significant
Carcinogen: DIETHYLNITROSAMINE, 55-18-5, Dose [Inhibitor]: 0, 300 MG/KG DIET FOR DURATION OF STUDY BEGINNING 1 WK PRIOR TO CARCINOGEN TREATMENT (STUDY DURATION: 25 WK), Species: HAMSTER, Strain/Sex: SYRIAN/MALE, Target Tissue: Type of Lesion: LUNG: CARCINOMA, Dose [Carcinogen]: 17.8 MG/KG BW 2/WK FOR 20 WK
  tumour outcome (control, treated, inhibition, significance): 50%, 33%, 34%, not significant
Carcinogen: DIETHYLNITROSAMINE, 55-18-5, Dose [Inhibitor]: 0, 300 MG/KG DIET FOR DURATION OF STUDY BEGINNING 1 WK PRIOR TO CARCINOGEN TREATMENT (STUDY DURATION: 25 WK), Species: HAMSTER, Strain/Sex: SYRIAN/MALE, Target Tissue: Type of Lesion: TRACHEA: PAPILLOMA, Dose [Carcinogen]: 17.8 MG/KG BW 2/WK FOR 20 WK
  tumour outcome (control, treated, inhibition, significance): 95%, 85%, 11%, not significant
Carcinogen: DIETHYLNITROSAMINE, 55-18-5, Dose [Inhibitor]: 0, 600 MG/KG DIET FOR DURATION OF STUDY BEGINNING 1 WK PRIOR TO CARCINOGEN TREATMENT (STUDY DURATION: 25 WK), Species: HAMSTER, Strain/Sex: SYRIAN/MALE, Target Tissue: Type of Lesion: LUNG: CARCINOMA, Dose [Carcinogen]: 17.8 MG/KG BW 2/WK FOR 20 WK
  tumour outcome (control, treated, inhibition, significance): 60%, 0%, 100%, p<0.0001
